In patent US20110117070A1, “COMPOSITIONS AND METHODS FOR TREATING HEADACHE” (priority 2005, published 2011):
Values joined by “and” are separate entries in the source; they are usually repeats but may differ in a detail not shown here. Equal entries are not always repeated. Where two headings read alike, the source gives them in different places.

Tests used:
[1] = cited from earlier work
[2] = test system: Leishmania amazonensis; conditions: cited from earlier work
[3] = test system: acute myelogenous leukemia cells; conditions: normal bone marrow cells relatively unscathed; cited from earlier work
[4] = Retrospective chart review of topiramate side effect profile in 20 migraine patients; assay type: in vivo, human; design: key: 1: mild or none; 2: tolerable, not treatment limiting; 3: warrants trial of topiramate dose reduction; 4: considering stopping topiramate treatment strongly; conditions: topiramate alone, monotherapy for at least 6 weeks; one line per patient at the indicated daily dosage
[5] = test system: migraine; conditions: cited from earlier work; for reduction of migraine incidents vs. placebo: 50 mg/day or less
[6] = test system: cluster headaches; conditions: cited from earlier work
[7] = test system: migraine; experiment: Retrospective chart review of migraine treatment efficacy in 20 headache clinic patients; assay type: in vivo, human; design: concentration or dose not given beside the values; conditions: topiramate alone, monotherapy for at least 6 weeks; one line per patient at the indicated daily dosage
Description: (§1) In a headache clinic, 20 patients suffering from migraine are treated with a dosage of topiramate and then an additional, secondary therapeutic component comprising one of the following therapeutic agents, or mixture of agents: 1) a commercially available combination tablet sold under the name Migrelief® dietary supplement contains puracol feverfew extract (comprising partheolide), magnesium citrate/oxide (1:1), and riboflavin; and 2) a second medicine having the trade name Migravent® natural supplement containing butterbur extract (including petasin and isopetasin), and a blend of riboflavin, magnesium and coenzyme Q10; these combined ingredients are present in a “proprietary blend” of 876 mg.
(§2) In twenty patients suffering from migraine the effect of augmentation of topiramate treatment was formally documented. […] Patients were treated in combination therapy with topiramate and the indicated second agent for 6 weeks before side effect and efficacy data were obtained for comparison with the monotherapy data. Dosages of the second therapeutic component was as follows: Migravent: 150 mg pyrrolizidine alkaloids (PA) free) and 876 mg (Riboflavin, Magnesium, Co-enzyme Q-10 [propriety blend]); Migralief: Magnesium citrate and oxide 360 mg, riboflavin 400 mg and Puracol Feverfew (Tanacetum parthenium). […]

[8] = test system: migraine; experiment: as above; assay type: in vivo, human; design: key: 1: no measurable efficacy; 2: some measurable difference in severity and or frequency of headache; 3: modest improvement in severity or frequency of headache; 4: headache frequency improvement either 50% or greater in frequency, severity or both; conditions: topiramate alone, monotherapy for at least 6 weeks; one line per patient at the indicated daily dosage
Description: as §1, §2

Compound | solubility in water [1] | activity against Leishmania amazonensis [2] | effect on acute myelogenous leukemia cells [3] | Side Effects [4] | reduction of migraine incidents vs. placebo [5] | reduction of migraine incidents vs. placebo ([5]; listed as toprimate) | Side Effects ([5]; 100 mg or more per day) | prophylactic effect versus placebo ([5]; 100 mg per day or greater) | patients reporting an increase in migraine and other headaches ([5]; human, in vivo) | reduction of migraine frequency ([5]; patients having an average of 5.5 migraine per month, placebo: one headache per month) | rapid relief of cluster headaches ([6]; 50, 100, or 125 mg/day) | time to control the cluster headaches ([6]; daily delivery in the 50-125 mg range) | Efficacy [7] | Efficacy [8]
C=C1C(=O)O[C@H]2[C@H]1CC/C(C)=C/CC[C@@]1(C)O[C@@H]21 [Parthenolide] | limited solubility in water | active against the parasite Leishmania amazonensis | destroy acute myelogenous leukemia cells by inducing apoptosis |  |  |  |  |  |  |  |  |  |  | 
2,3:4,5-Di-O-isopropylidene-β-D-fructopyranose sulfamate [Topiramate] |  |  |  | 1 (4×) and 4 (8×) and 3 (6×) and 2 (2×) | no statistical significance | did not show statistically significant efficacy | significant unacceptable side effects | statistically significant prophylactic effects | > 1% | about 2 headaches per month | inadequate in providing rapid relief | 1-3 weeks | 4 (headache frequency improvement either 50% or greater in frequency, severity or both) | 2 (9×) and 3 (8×)
